According to patent US7915293B2, “Ubiquitin ligase inhibitors” (Rigel Pharmaceuticals, Inc., priority 2003, dated 2011):

The compounds below were run on A549 cells (assay: Cell proliferation assay, photographic image analysis of proliferation, apoptosis and death (PAD assay), A549). Conditions: 6 concentrations tested.
Type: cell-based
Design: key: “+” indicates that the compound exibits inhibitory activity; “−” indicates that low or no inhibitory activity was observed
Procedure: A549 (ATCC# CCL-185), HeLa (ATCC# CCL-2), HCT116 (ATCC# CCL-247), and H1299 (ATCC# CRL-5803) cells were maintained in T175 flasks following the ATCC recommended media and handling procedures. Flasks reaching approximately 70% confluency were trypsinized and resuspended in RPMI media (Cell-Gro catalog number 10-040-CM) modified to contain 5% FBS, 100 ug/mlPen/Strep (Cell-Gro catalog number 30-002-CL), and 0.3 mg/ml L-Glutamine (Cell-Gro catalog number 25-003-CL). A 20,000 cells/ml solution was made for plating. Cells were plated in black Packard 96 well plates by placing 100 μl per well (2,000 cells per well).
Compounds and additional media were added 24 hours after cell plating. A compound master plate was created with concentrations 500 times greater than the final concentration added to the cells. All compound testing was done in duplicate using 6.3 fold dilutions starting with 10 mM. All outside wells (and 4 internal wells) were DMSO controls. Taxol and at least one additional control were run on all plates. Three microliters of the compound master plate were added to deep well blocks containing 750 μl of RPMI media. One hundred microliters were transferred from the compound/media deep well blocks to the plated cells resulting in a 500 fold dilution of the compounds. Cells were grown at 37° C., 5% CO2 for 48 hours.
Cells to be analyzed by photography were fixed and stained. One hundred microliters of media were removed and 100 μl of 9.3% […] was added to each well. Plates were left on the benchtop for 45 minutes. A staining solution containing 1.55 μl of 1 mg/ml DAPI added to 18.75 ml PBS was warmed for 15 minutes at 37° C. The cells were aspirated prior to washing with 100 μl of PBS. Seventy microliters of PBS were aspirated and 170 μl of the DAPI solution were added to each well of fixed cells. Plates were left at room temperature for one hour then aspirated and washed twice with 100 μl of PBS. The stained cells were left at 4° C. for a minimum of 16 hours before photographic analysis with Array Scan II (Cellomics). Analysis of the photographic images to determine numbers of live cells (proliferation), apoptotic cells and dead cells, were according to the methods described in U.S. Provisional Patent Application Ser. No. 60/406,714, which incorporated herein in its entirety.

SMILES | PAD Assay, A549 6 pt
CC1CN(S(=O)(=O)c2cc(Cl)c(Oc3ccc([N+](=O)[O-])cc3Cl)c(Cl)c2)CC(C)O1 (stereo not shown) [Example 18, 4-{[3,5-dichloro-4-(2-chloro-4-nitrophenoxy)phenyl]sulfonyl}-2,6-dimethylmorpholine] | −
N=C(NS(=O)(=O)c1cc(Cl)c(Oc2ccc([N+](=O)[O-])cc2Cl)c(Cl)c1)c1ccccn1 [Example 27, N-{[3,5-dichloro-4-(2-chloro-4-nitrophenoxy)phenyl]sulfonyl}pyridine-2-carboximidamide] | −

These compounds were tested against E3 (His-APC11/APC2-"APC") (Homo sapiens, UniProt Q9NYG5+Q9UJX6) (assay: Plate-based E3 ligase assay (APC FLAG), auto-ubiquitination). Conditions: 2 concentrations tested.
Type: biochemical
Design: key: “+” indicates that the compound exibits inhibitory activity; “−” indicates that low or no inhibitory activity was observed
Procedure: E3 (His-APC11/APC2-“APC”) auto-ubiquitination was measured as described in U.S. patent application Ser. No. 09/826,312 (Publication No. US-2002-0042083-A1), which is incorporated herein in its entirety. Details of the protocol are described below. Activity in the presence of the compound was determined relative to a parallel control in which only DMSO was added. Values of the IC50 were typically determined using 6 or 8 different concentrations of the compound, although as few as 2 concentrations may be used to approximate the IC50 value.
Nickel-coated 96-well plates (Pierce 15242) were blocked for 1 hour with 100 μl of blocking buffer at room temperature. The plates were washed 4 times with 225 μl of 1×PBS and 80 μl of the reaction buffer were added that contained 100 ng/well of Flag-ubiquitin. To this, 10 μl of the test compound diluted in DMSO were added. After the test compound was added, 10 μl of E1 (human), E2 (Ubch5c), and APC in Protein Buffer was added to obtain a final concentration of 5 ng/well of E1, 20 ng/well of E2 and 100 ng/well of APC. The plate were shaken for 10 minutes and incubated at room temperature for 1 hour. After incubation, the plates were washed 4 times with 225 μl of 1×PBS and 100 μl/well of Antibody Mix were added to each well. The plates were incubate at room temperature for another hour after which they were washed 4 times with 225 μl of 1×PBS and 100 μl/well of Lumino substrate were added to each well. The luminescence was measured by using a BMG luminescence microplate reader.
To prepare the Blocking Buffer (1 liter; 1% Casein in 1×PBS), 10 grams of Casein (Hammersten Grade Casein from Gallard-Schlesinger Inc. #440203) were placed into 1 liter of 1×PBS, stirred on a hot plate and kept between 50-60° C. for an hour. The buffer was allowed to cool to room temperature and then filtered using a Buchner Funnel (Buchner filter funnel 83 mm 30310-109) and Whatman filter paper (Whatman Grade No. 1 Filter paper 28450-070). It was stored at 4° C. until used.
The reaction buffer consisted of 62.5 mM Tris pH 7.6 (Trizma Base—Sigma T-8524), 3 mM MgCl2 (Magnesium Chloride—Sigma M-2393), 1 mM DTT (Sigma D-9779), 2.5 mM ATP (Roche Boehringer Mann Corp. 635-316), 100 ng/well of Flag-ubiquitin, 0.1% BSA (Sigma A-7906), and 0.05% Tween-20 (Sigma P-7949).
The Protein Buffer consisted of 20 mM Tris pH 7.6, 10% glycerol (Sigma G-5516) and 1 mM DTT.
The antibody mix consisted of 0.25% BSA (Sigma A-7906) in 1×PBS, 1/50,000 anti-Flag (Sigma F-3165), 1/100,000 of anti-Mouse IgG-HRP (Jackson Immunoresearch #115-035-146).
The substrate mix consisted of SuperSignal Substrate from Pierce (catalog number 37070ZZ) and was prepared by mixing 100 ml of the peroxide solution, 100 ml of the enhancer solution and 100 ml of Milli-Q® water.

E3 (His-APC11/APC2-"APC"), sequence (Q9NYG5 whole entry): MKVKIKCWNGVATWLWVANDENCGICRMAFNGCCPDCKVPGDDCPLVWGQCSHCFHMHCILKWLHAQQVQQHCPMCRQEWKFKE
E3 (His-APC11/APC2-"APC"), sequence (Q9UJX6 whole entry): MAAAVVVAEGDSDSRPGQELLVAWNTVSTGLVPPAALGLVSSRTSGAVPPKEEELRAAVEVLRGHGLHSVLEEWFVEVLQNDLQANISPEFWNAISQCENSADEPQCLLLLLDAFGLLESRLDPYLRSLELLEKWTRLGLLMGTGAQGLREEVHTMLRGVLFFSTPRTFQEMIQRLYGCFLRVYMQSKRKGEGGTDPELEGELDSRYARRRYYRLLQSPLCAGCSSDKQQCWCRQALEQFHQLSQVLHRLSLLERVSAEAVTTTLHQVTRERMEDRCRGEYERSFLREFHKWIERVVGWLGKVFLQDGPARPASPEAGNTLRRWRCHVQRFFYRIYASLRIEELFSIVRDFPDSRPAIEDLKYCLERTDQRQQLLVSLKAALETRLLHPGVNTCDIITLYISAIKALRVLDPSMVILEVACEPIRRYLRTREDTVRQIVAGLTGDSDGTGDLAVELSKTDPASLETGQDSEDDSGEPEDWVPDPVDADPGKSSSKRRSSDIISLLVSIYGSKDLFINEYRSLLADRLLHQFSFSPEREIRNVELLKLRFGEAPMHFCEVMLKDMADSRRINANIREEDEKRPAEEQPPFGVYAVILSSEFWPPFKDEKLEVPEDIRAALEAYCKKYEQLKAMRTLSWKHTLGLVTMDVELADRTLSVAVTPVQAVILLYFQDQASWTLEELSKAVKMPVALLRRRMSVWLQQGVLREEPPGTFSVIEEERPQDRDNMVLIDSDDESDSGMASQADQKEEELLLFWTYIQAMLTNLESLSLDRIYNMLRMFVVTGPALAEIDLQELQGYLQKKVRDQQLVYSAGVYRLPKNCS

APC Flag (2 pt) | SMILES
− (2 pt) | Cc1c(Cl)cccc1NS(=O)(=O)c1ccc(Oc2ccc(F)cc2)cc1 [Example 188, N-(3-chloro-2-methylphenyl)-4-(4-fluoro-phenoxy)benzenesulfonamide]

Same assay, conditions: 8 concentrations tested

SMILES | APC Flag 8 pt
CC1CN(S(=O)(=O)c2cc(Cl)c(Oc3ccc([N+](=O)[O-])cc3Cl)c(Cl)c2)CC(C)O1 (stereo not shown) [Example 18, 4-{[3,5-dichloro-4-(2-chloro-4-nitrophenoxy)phenyl]sulfonyl}-2,6-dimethylmorpholine] | −
O=[N+]([O-])c1ccc(Oc2c(Cl)cc(S(=O)(=O)NCCCOc3cc(Cl)cc(Cl)c3)cc2Cl)c(Cl)c1 [Example 126, 3,5-dichloro-4-(2-chloro-4-nitrophenoxy)-N-[3-(3,5-dichlorophenoxy)propyl] benzenesulfonamide] | −
N=C(N)NCCC[C@H](NS(=O)(=O)c1cc(Cl)c(Oc2ccc([N+](=O)[O-])cc2Cl)c(Cl)c1)C(N)=O [Example 141, N^2-{[3,5-dichloro-4-(2-chloro-4-nitrophenoxy)phenyl]sulfonyl}argininamide] | −
N#Cc1c(Cl)cccc1Oc1ccc(S(=O)(=O)Nc2ccc(F)c(Cl)c2)cc1 [Example 182, 4-(3-chloro-2-cyanophenoxy)-N-(3-chloro-4-fluorophenyl)benzenesulfonamide] | −
O=C(Nc1cc(Cl)ccc1Cl)N1CCC(Oc2ccccc2C(F)(F)F)CC1 [Example 308, N-(2,5-dichlorophenyl)-4-(2-(trifluoromethyl)phenoxy)piperidine-1-carboxamide] | −
O=C1CCC(CCCNS(=O)(=O)c2cc(Cl)c(Oc3ccc([N+](=O)[O-])cc3Cl)c(Cl)c2)N1 (stereo not shown) [Example 122, 3,5-dichloro-4-(2-chloro-4-nitrophenoxy)-N-[3-(5-oxopyrrolidin-2-yl)propyl] benzenesulfonamide] | +
Cc1c(Cl)cccc1NS(=O)(=O)c1ccc(Oc2cccc(Cl)c2C#N)cc1 [Example 181, 4-(3-chloro-2-cyanophenoxy)-N-(3-chloro-2-methylphenyl)benzenesulfonamide] | −
CN(C)CCCNS(=O)(=O)c1cc(Cl)c(Oc2ccc([N+](=O)[O-])cc2Cl)c(Cl)c1 [Example 131] | +
O=C(Nc1cc(C(F)(F)F)ccc1Cl)N1CCC(Oc2ncccn2)CC1 [Example 309, N-(2-chloro-5-(trifluoromethyl)phenyl)-4-(pyrimidin-2-yloxy)piperidine-1-carboxamide] | −
O=[N+]([O-])c1cc(C(F)(F)F)cc([N+](=O)[O-])c1Oc1ccc(NS(=O)(=O)c2ccc(Cl)cc2)cc1Cl [Example 248, 4-chloro-N-{3-chloro-4-[2,6-dinitro-4-(tri-fluoromethyl)phenoxy]phenyl}benzene-sulfonamide] | −
Cc1c(Cl)cccc1NS(=O)(=O)c1ccc(Oc2c(Cl)cccc2[N+](=O)[O-])cc1 [Example 184, N-(3-chloro-2-methylphenyl)-4-(2-chloro-6-nitrophenoxy)benzenesulfonamide] | −
Cc1ccc(S(=O)(=O)Nc2ccc(Oc3c([N+](=O)[O-])cc(C(F)(F)F)cc3[N+](=O)[O-])c(Cl)c2)cc1 [Example 247, N-{3-chloro-4-[2,6-dinitro-4-(trifluoro-methyl)phenoxy]phenyl}-4-methylbenzene-sulfonamide] | +
O=C(Nc1cc(C(F)(F)F)ccc1Cl)N1CCC(Oc2ccccc2C(F)(F)F)CC1 [Example 307, N-(2-chloro-5-(trifluoromethyl)phenyl)-4-(2-(trifluoromethyl)phenoxy)piperidine-1-carboxamide] | −
O=[N+]([O-])c1ccc(F)c(NS(=O)(=O)c2ccc(Oc3ccc([N+](=O)[O-])cc3C(F)(F)F)c(Cl)c2)c1 [Example 260, 3-chloro-N-(2-fluoro-5-nitrophenyl)-4-[4-nitro-2-(trifluoromethyl)phenoxy]benzene-sulfonamide] | +

Further lines, results first:

APC Flag 8 pt | SMILES
− | N=C(NS(=O)(=O)c1cc(Cl)c(Oc2ccc([N+](=O)[O-])cc2Cl)c(Cl)c1)c1ccccn1 [Example 27, N-{[3,5-dichloro-4-(2-chloro-4-nitrophenoxy)phenyl]sulfonyl}pyridine-2-carboximidamide]
+ | O=C(NCC1CC1)c1cccc(NS(=O)(=O)c2cc(Cl)c(Oc3ccc([N+](=O)[O-])cc3Cl)c(Cl)c2)c1 [Compound 151, N-(cyclopropylmethyl)-3-({[3,5-dichloro-4-(2-chloro-4-nitrophenoxy)phenyl]sulfonyl}amino)benzamide]
+ | COc1cccc(NS(=O)(=O)c2cc(Cl)c(Oc3ccc([N+](=O)[O-])cc3Cl)c(Cl)c2)c1 [Example 163, 3,5-dichloro-4-(2-chloro-4-nitrophenoxy)-N-(3-methoxyphenyl)benzenesulfonamide]
+ | NS(=O)(=O)c1cc(Cl)c(Oc2ccc([N+](=O)[O-])cc2Cl)c(Cl)c1 [Compound 124, 3,5-dichloro-4-(2-chloro-4-nitrophenoxy)benzenesulfonamide]
+ | COc1ccc(NS(=O)(=O)c2cc(Cl)c(Oc3ccc([N+](=O)[O-])cc3Cl)c(Cl)c2)c(OC)c1OC [Example 157, 3,5-dichloro-4-(2-chloro-4-nitrophenoxy)-N-(2,3,4-trimethoxyphenyl)benzenesulfonamide]
− | CN(c1cccc(Cl)c1)S(=O)(=O)c1cc(Cl)c(Oc2ccc([N+](=O)[O-])cc2Cl)c(Cl)c1 [Compound 153, 3,5-dichloro-4-(2-chloro-4-nitrophenoxy)-N-(3-chlorophenyl)-N-methylbenzenesulfonamide]
+ | O=[N+]([O-])c1ccc(Oc2c(Cl)cc(S(=O)(=O)NCC3CC3)cc2Cl)c(Cl)c1 [Compound 120, N-(Cyclopropylmethyl)-3,5-Dichloro-4-(2-Chloro-4-Nitrophenoxy) Benzenesulfonamide]
+ | O=[N+]([O-])c1ccc(Oc2c(Cl)cc(S(=O)(=O)Nc3cccc(F)c3F)cc2Cl)c(Cl)c1 [Example 239, 3,5-dichloro-4-(2-chloro-4-nitrophenoxy)-N-(2,3-difluorophenyl)benzenesulfonamide]
